Test results: patent US4221805A, “Method of inducing platelet antiaggregation activity” (priority 1978, dated 1980)

Columns and labels:
[1] = test system: human PRP (Platelet Rich Plasma), platelet aggregation induced by ADP; assay: In vitro platelet antiaggregation activity (Born method, ADP-induced); format: cell-based; conditions: Platelet, ADP 10^-3 mM
Description: The method described by Born (Nature, 194, 927, 1962) was followed for this test, based on the increase in the platelet aggregation induced by ADP. The experiment was conducted using a human PRP (Platelet Rich Plasma) pool from four healthy volunteers who had not taken any drugs for ten days. The PRP was adjusted to 280,000±20,000 and kept at ambient temperature for the entire duration of the test.
400 μl of PRP and 100 μl of MRAP2 dissolved in a physiological solution and adjusted to a pH of 7.4 were placed in plastic test tubes. Three doses of the drug in question (0.181, 0.904 and 1.818 mg/ml) were used.
Three dilutions of aspirin were prepared under the same conditions for use as a comparison drug. Two minutes after contact between the drug and PRP, the test tube was inserted into the aggregometer cell (EEI, Model 169 with Corning Recorder Mod.840). After 60 seconds, ADP (10^-3 mM) was added and the aggregation was recorded. In calculating the antiaggregation activity, reference was made to the maximum amplitude of the aggregation curved obtained with ADP. Assuming this amplitude to be 100, the amplitudes of the curves obtained with the various doses of MRAP2 and aspirin were calculated as a percentage.

platelet aggregation = assay: In vivo platelet antiaggregation activity; set-up: species or system male rats, Wistar strain; conditions: rats, single oral dose 3 mg/kg
Description: This experiment was carried out on male rats of the Wistar strain having a weight of 320±20 grams. Both the MRAP2 and the aspirin (used as a comparison drug) were dissolved in a physiological solution, and the solutions, adjusted to pH 7.4, were administered orally in doeses of 3 mg/kg to two groups of three rats each. […] The concentration of the solution was adjusted to contain 100 mg of MRAP2 per ml. Blood samples were drawn from each animal 72 and 120 hours after treatment, for checking the platelet aggregation. In calculating the activity, the previous method was used (the average of the three maximum amplitudes of the curves obtained with the untreated rats was given the control figure of 100%).

stomach (gastric lesion) = assay: Ulcerogenic activity in rats after a single administration; format: in vivo, male albino rats, Wistar strain; conditions: rat, in vivo, po
Description: The ulcerogenic activity of MRAP2 was tested both after a single administration of the drug, and after prolonged administration.
In these tests, a total of 70 male albino rats of Wistar strain were used, having a weight of 200±20 grams.
The MRAP2 was administered diluted in tap water.
40 rats, fasted for 18 hours before the experiment, were divided into four batches of ten animals and treated orally as follows:
3rd group: MRAP2 (50 mg/kg)
4th group: MRAP2 (125 mg/kg).
The animals were killed after six hours. The stomach was withdrawn and the gastric lesion index was evaluated in terms of an arbitrary scale of values lying between 0. and 7 based on previous models proposed by other authors.
Furthermore, the treatment was randomised in order to eliminate any possible polarisation of the data.
The points given for gastric ulcerative lesions were as follows:
(1) hyperaemia or slight capillary obstruction; or slight loss of the epithelium; or some petechiae even with pale mucosa without hyperaemia;
(2) diffuse capillary obstructions or numerous petechiae; or diffuse loss of the epithelium; of a few surface lesions;
(3) strong submucosa haemorrhage; or many petechiae and small surface lesions; or much anaemic mucosa (yellowish colour); or up to three small ulcers;
(4) general pattern as in the previous numbers, plus up to ten small ulcers; or long erosions; or up to three medium sized ulcers;
(5) pattern as in number 4, with up to 15 small ulcers; or up to 6 large ulcers;
(6) pattern as previously, with up to ten large ulcers, plus small ulcers;
(7) pattern as previously, plus up to ten large ulcers and small ulcers; cases of perforated ulcers.

| Structure (SMILES) | inhibition of platelet aggregation at 181 µg/mL ([1]; drug 0.181 mg/ml) [%] | activity at 181 µg/mL ([1]; drug 0.181 mg/ml, serum + ADP = 100) [%] | inhibition of platelet aggregation at 904 µg/mL ([1]; drug 0.904 mg/ml) [%] | activity at 904 µg/mL ([1]; drug 0.904 mg/ml, serum + ADP = 100) [%] | inhibition of platelet aggregation at 1818 µg/mL ([1]; drug 1.818 mg/ml) [%] | activity at 1818 µg/mL ([1]; drug 1.818 mg/ml, serum + ADP = 100) [%] | % platelet antiaggregation activity on day 3 (platelet aggregation; day 3 (72 hours)) [%] | % platelet aggregation on day 3 (platelet aggregation; day 3 (72 hours), controls = 100) [%] | % platelet antiaggregation activity on day 5 (platelet aggregation; day 5 (120 hours)) [%] | % platelet aggregation on day 5 (platelet aggregation; day 5 (120 hours), controls = 100) [%] | incidence of ulcerative lesions (in words) (stomach (gastric lesion)) |
| --- | --- | --- | --- | --- | --- | --- | --- | --- | --- | --- | --- |
| CC(=O)Oc1ccccc1C(=O)O [aspirin, reference compound] | 5 | 95 | 63 | 37 | 74 | 26 | 25 | 75 | 25 | 75 | – |
| CCCCC1C(=O)N(c2ccccc2)N(c2ccccc2)C1=O [phenylbutazone, reference compound] | – | – | – | – | – | – | – | – | – | – | very marked |
